Our source for the MIC values is patent US20120214760A1, “TREATMENT OF URINARY TRACT INFECTIONS WITH ANTIBACTERIAL AMINOGLYCOSIDE COMPOUNDS” (Achaogen, Inc., priority 2009, published 2012).

Assay [1] concerns P. aeruginosa ATCC 27853 (APAE001). Kind of assay: MIC, CLSI broth microdilution. The format is cell-based. The following applies: Pseudomonas aeruginosa. As to the method: (§1) Minimum inhibitory concentrations (MIC) were determined by reference Clinical and Laboratory Standards Institute (CLSI) broth microdilution methods per M7-A7 [2006]. Quality control ranges utilizing E. coli ATCC 25922, P. aeruginosa ATCC 27853 and S. aureus ATCC 29213, and interpretive criteria for comparator agents were as published in CLSI M100-S17 [2007]. Briefly, serial two-fold dilutions of the test compounds were prepared at 2× concentration in Mueller Hinton Broth. The compound dilutions were mixed in 96-well assay plates in a 1:1 ratio with bacterial inoculum. The inoculum was prepared by suspension of a colony from an agar plate that was prepared the previous day. Bacteria were suspended in sterile saline and added to each assay plate to obtain a final concentration of 5×10^5 CFU/mL. The plates were incubated at 35° C. for 20 hours in ambient air.

In assay [2] the test system is E. coli ATCC 25922 (AECO001). As to the kind of experiment: MIC, CLSI broth microdilution. Conditions: Escherichia coli. The format is cell-based. Here is the method: as §1
[3] abbreviates: ATCC27853, read-out: MIC APAE001, Table 1, APAE001 is ATCC27853.
The mark [4] stands for this setting: ATCC25922, read-out: MIC AECO001, Table 1, AECO001 is ATCC25922.

Molecules are shown by their SMILES. Converted amounts (≈) assume the structure as drawn. Like-named read-outs stand apart in the source and are kept apart here.

One may read the MIC as the least concentration at which growth counts as inhibited.

Regarding `CN[C@@H]1[C@@H](O)[C@@H](O[C@@H]2[C@@H](O)[C@H](O[C@H]3OC(CNCC4CCCN4)=CC[C@H]3N)[C@@H](N)C[C@H]2NC(=O)[C@@H](O)CCN)OC[C@]1(C)O` (stereo partly drawn) [Example 49, 6′-(Methyl-pyrrolidin-2-yl)-1-(4-amino-2(S)-hydroxy-butyryl)-sisomicin], the MIC in assay [1] (setting [3]) is 1 to 16 µg/mL (≈ 1.58 to 25.3 µM); in assay [2] (setting [4]), below 1 µg/mL.

For the compound `CN[C@@H]1[C@@H](O)[C@@H](O[C@@H]2[C@@H](O)[C@H](O[C@H]3OC(CNCCO)=CC[C@H]3N)[C@@H](N)C[C@H]2NS(=O)(=O)CCN)OC[C@]1(C)O` [Example 29, 6′-(2-Hydroxy-ethyl)-1-(2-amino-ethylsulfonamide)-sisomicin], the MIC was above 16 µg/mL in assay [1] (setting [3]) and 1 to 16 µg/mL (≈ 1.67 to 26.7 µM) in assay [2] (setting [4]).

For `CN[C@@H]1[C@@H](O)[C@@H](O[C@@H]2[C@@H](O)[C@H](O[C@H]3OC(CN)=CC[C@H]3NCC3CCNC3)[C@@H](N)C[C@H]2NC(=O)[C@@H](O)CCN)OC[C@]1(C)O` (stereo partly drawn) [Example 84, 2′-(Methyl-pyrrolidin-3-yl)-1-(4-amino-2(S)-hydroxy-butyryl)-sisomicin], the MIC in assay [1] (setting [3]) was 1 to 16 µg/mL (≈ 1.58 to 25.3 µM); in assay [2] (setting [4]) it was below 1 µg/mL.

As for `CN[C@@H]1[C@@H](O)[C@@H](O[C@@H]2[C@@H](O)[C@H](O[C@H]3OC(CNCCO)=CC[C@H]3NC(=N)N)[C@@H](N)C[C@H]2N)OC[C@]1(C)O` [Example 106, 6′-(2-Hydroxy-ethyl)-2′-guanidinium-sisomicin], the MIC is 1 to 16 µg/mL (≈ 1.87 to 30 µM) in assay [1] (setting [3]) and below 1 µg/mL in assay [2] (setting [4]).

For the compound `CN[C@@H]1[C@@H](O)[C@@H](O[C@@H]2[C@@H](O)[C@H](O[C@H]3OC(CNCCCN)=CC[C@H]3N)[C@@H](N)C[C@H]2NC(=O)C2(O)CNC2)OC[C@]1(C)O` [Example 57], the MIC in assay [1] (ATCC27853, Table 2, read-out: MIC P. aeruginosa) is below 1 µg/mL; in assay [2] (ATCC25922, Table 2, read-out: MIC E. coli), below 1 µg/mL; in assay [2] (Table 1, AECO001 is ATCC25922, read-out: MIC AECO001), below 1 µg/mL.

Take `CN[C@@H]1[C@@H](O)[C@@H](O[C@@H]2[C@@H](O)[C@H](O[C@H]3OC(CNC[C@H](O)C(=O)O)=CC[C@H]3N)[C@@H](N)C[C@H]2NC(=O)[C@@H](O)CCN)OC[C@]1(C)O` [Example 50, 6′-(2(S)-Hydroxy-3-propanoic)-1-(4-amino-2(S)-hydroxy-butyryl)-sisomicin]: the MIC in assay [1] (setting [3]) and in assay [2] (setting [4]) was above 16 µg/mL in each case.

As for `CN[C@@H]1[C@@H](O)[C@@H](O[C@@H]2[C@@H](O)[C@H](O[C@H]3OC(CN)=CC[C@H]3NC[C@H](C)N)[C@@H](N)C[C@H]2NC(=O)[C@@H](O)CCN)OC[C@]1(C)O` [Example 95, 2′-(2(S)-Amino-propyl)-1-(4-amino-2(S)-hydroxy-butyryl)-sisomicin], the MIC in assay [1] (setting [3]) was above 16 µg/mL; in assay [2] (setting [4]), below 1 µg/mL.

In the case of `CN[C@@H]1[C@@H](O)[C@@H](O[C@@H]2[C@@H](O)[C@H](O[C@H]3OC(CNCC(O)CCN)=CC[C@H]3N)[C@@H](N)C[C@H]2NC(=O)C2(O)CCNC2)OC[C@]1(C)O` (stereo partly shown) [Example 35], the MIC in assay [1] (setting [3]) was 1 to 16 µg/mL (≈ 1.54 to 24.7 µM); in assay [2] (setting [4]), below 1 µg/mL.

In the case of `CN[C@@H]1[C@@H](O)[C@@H](O[C@@H]2[C@@H](O)[C@H](O[C@H]3OC(CNC[C@H]4C[C@@H](N)[C@@H](O)C4)=CC[C@H]3N)[C@@H](N)C[C@H]2NC(=O)[C@@H](O)CN)OC[C@]1(C)O` [Example 69, 6′-(Methyl-1(R)-amino-2(S)-hydroxy-cyclopent-4(S)-yl)-1-(3-amino-2(S)-hydroxy-propionyl)-sisomicin], the values for the MIC in assay [1] (setting [3]) and in assay [2] (setting [4]) were 1 to 16 µg/mL (≈ 1.54 to 24.7 µM) and below 1 µg/mL, respectively.

In the case of `CN[C@@H]1[C@@H](O)[C@@H](O[C@@H]2[C@@H](O)[C@H](O[C@H]3OC(CNCC4(N)CC4)=CC[C@H]3N)[C@@H](N)C[C@H]2NC(=O)[C@@H](O)CN)OC[C@]1(C)O` [Example 67, 6′-(Methyl-1-Amino-cyclopropyl)-1-(3-amino-2(S)-hydroxy-propionyl)-sisomicin], the MIC in assay [1] (setting [3]) and in assay [2] (setting [4]) was 1 to 16 µg/mL (≈ 1.66 to 26.5 µM) in each case.

On to `CN[C@@H]1[C@@H](O)[C@@H](O[C@@H]2[C@@H](O)[C@H](O[C@H]3OC(CNCCCO)=CC[C@H]3N)[C@@H](N)C[C@H]2NC(=O)[C@@H](O)CN)OC[C@]1(C)O` [Example 54, 6′-(3-Propanol)-1-(3-amino-2(S)-hydroxy-propionyl)-sisomicin], for which the MIC was 1 to 16 µg/mL (≈ 1.69 to 27 µM) in assay [1] (setting [3]) and below 1 µg/mL in assay [2] (setting [4]).

In the case of `CN[C@@H]1[C@@H](O)[C@@H](O[C@@H]2[C@@H](O)[C@H](O[C@H]3OC(CNCC4(CN)CC4)=CC[C@H]3N)[C@@H](N)C[C@H]2NC(=O)C(O)C2CNC2)OC[C@]1(C)O` (stereo partly shown) [Example 74, 6′-(Methyl-1-aminomethyl-cyclopropyl)-1-(2-(azetidin-3-yl)-2-hydroxy-acetyl)-sisomicin], the MIC is above 16 µg/mL in assay [1] (setting [3]) and 1 to 16 µg/mL (≈ 1.55 to 24.9 µM) in assay [2] (setting [4]).

Regarding `CN[C@@H]1[C@@H](O)[C@@H](O[C@@H]2[C@@H](O)[C@H](O[C@H]3OC(CNCC(N)CO)=CC[C@H]3N)[C@@H](N)C[C@H]2NC(=O)[C@@H](O)CCN)OC[C@]1(C)O` (stereo partly drawn) [Example 30, 6′-(2-Amino-propanol)-1-(4-amino-2(S)-hydroxy-butyryl)-sisomicin], the MIC in assay [1] (setting [3]) is 1 to 16 µg/mL (≈ 1.61 to 25.7 µM); in assay [2] (setting [4]) it was below 1 µg/mL.

Regarding `CN[C@@H]1[C@@H](O)[C@@H](O[C@@H]2[C@@H](O)[C@H](O[C@H]3OC(CNCCO)=CC[C@H]3N)[C@@H](N)C[C@H]2NC(=O)[C@H](O)CCN)OC[C@]1(C)O` [Example 2, 6′-(2-Hydroxy-ethyl)-1-(4-amino-2(R)-hydroxy-butyryl)-sisomicin], the MIC in assay [1] (setting [3]) and in assay [2] (setting [4]) was 1 to 16 µg/mL (≈ 1.69 to 27 µM) throughout.

For `CNCC(=O)N[C@@H]1CC=C(CN)O[C@@H]1O[C@H]1[C@H](O)[C@@H](O[C@H]2OC[C@](C)(O)[C@H](NC)[C@H]2O)[C@H](NC(=O)[C@@H](O)CCN)C[C@@H]1N` [Example 86, 2′-(N-Methyl-amino-acetyl)-1-(4-amino-2(S)-hydroxy-butyryl)-sisomicin], the MIC in assay [1] (setting [3]) and in assay [2] (setting [4]) was 1 to 16 µg/mL (≈ 1.61 to 25.8 µM) throughout.

Turning to `CN[C@@H]1[C@@H](O)[C@@H](O[C@@H]2[C@@H](O)[C@H](O[C@H]3OC(CNCC(O)CO)=CC[C@H]3N)[C@@H](N)C[C@H]2NS(=O)(=O)CCN)OC[C@]1(C)O` (stereo partly shown) [Example 27, 6′-(2-Hydroxy-propanol)-1-(2-amino-ethylsulfonamide)-sisomicin], the MIC is above 16 µg/mL in assay [1] (setting [3]) and 1 to 16 µg/mL (≈ 1.59 to 25.4 µM) in assay [2] (setting [4]).

On to `CN[C@@H]1[C@@H](O)[C@@H](O[C@@H]2[C@@H](O)[C@H](O[C@H]3OC(CNCCC(N)C4CC4)=CC[C@H]3N)[C@@H](N)C[C@H]2NC(=O)[C@@H](O)CN)OC[C@]1(C)O` (stereo partly drawn) [Example 52, 6′-(3-Amino-3-cyclopropyl-propyl)-1-(3-amino-2(S)-hydroxy-propionyl)-sisomicin], for which the values for the MIC in assay [1] (setting [3]) and in assay [2] (setting [4]) were 1 to 16 µg/mL (≈ 1.58 to 25.3 µM) and below 1 µg/mL, respectively.

As to `CN[C@@H]1[C@@H](O)[C@@H](O[C@@H]2[C@@H](O)[C@H](O[C@H]3OC(CNC[C@@H]4C[C@H](N)CN4)=CC[C@H]3N)[C@@H](N)C[C@H]2NC(=O)[C@@H](O)CN)OC[C@]1(C)O` [Example 65, 6′-(Methyl-4(S)-amino-pyrrolidin-2(S)-yl)-1-(3-amino-2(S)-hydroxy-propionyl)-sisomicin], the MIC in assay [1] (setting [3]) and in assay [2] (setting [4]) was 1 to 16 µg/mL (≈ 1.58 to 25.3 µM) in each case.

Regarding `CN[C@@H]1[C@@H](O)[C@@H](O[C@@H]2[C@@H](O)[C@H](O[C@H]3OC(CN)=CC[C@H]3NCCCCN)[C@@H](N)C[C@H]2NC(=O)[C@@H](O)CCN)OC[C@]1(C)O` [Example 102, 2′-(4-Amino-butyl)-1-(4-amino-2(S)-hydroxy-butyryl)-sisomicin], the MIC was 1 to 16 µg/mL (≈ 1.61 to 25.8 µM) in assay [1] (setting [3]) and below 1 µg/mL in assay [2] (setting [4]).

With `CN[C@@H]1[C@@H](O)[C@@H](O[C@@H]2[C@@H](O)[C@H](O[C@H]3OC(CNCC(O)C(N)=O)=CC[C@H]3N)[C@@H](N)C[C@H]2NC(=O)[C@@H](O)CN)OC[C@]1(C)O` (stereo partly drawn) [Example 21, 6′-(2-Hydroxy-3-propionamide)-1-(3-amino-2(S)-hydroxy-propionyl)-sisomicin], the MIC in assay [1] (setting [3]) and in assay [2] (setting [4]) was 1 to 16 µg/mL (≈ 1.61 to 25.7 µM) in each case.

Regarding `CN[C@@H]1[C@@H](O)[C@@H](O[C@@H]2[C@@H](O)[C@H](O[C@H]3OC(CNCC(O)CO)=CC[C@H]3N)[C@@H](N)C[C@H]2NC(=O)[C@@H](O)CN)OC[C@]1(C)O` (stereo partly drawn) [Example 14, 6′-(2-Hydroxy-propanol)-1-(3-amino-2(S)-hydroxy-propionyl)-sisomicin], the MIC in assay [1] (setting [3]) and in assay [2] (setting [4]) was 1 to 16 µg/mL (≈ 1.64 to 26.3 µM) in each case.

For the compound `CN[C@@H]1[C@@H](O)[C@@H](O[C@@H]2[C@@H](O)[C@H](O[C@H]3OC(CN)=CC[C@H]3NC(=O)CN)[C@@H](N)C[C@H]2NC(=O)[C@@H](O)CCN)OC[C@]1(C)O` [Example 87, 2′-(2-Amino-acetyl)-1-(4-amino-2(S)-hydroxy-butyryl)-sisomicin], the minimum inhibitory concentration (MIC) in assay [1] (setting [3]) and in assay [2] (setting [4]) was 1 to 16 µg/mL (≈ 1.65 to 26.4 µM) throughout.

Take `CN[C@@H]1[C@@H](O)[C@@H](O[C@@H]2[C@@H](O)[C@H](O[C@H]3OC(CNCCCN)=CC[C@H]3N)[C@@H](N)C[C@H]2NC(=O)CO)OC[C@]1(C)O` [Example 24, 6′-(3-Amino-propyl)-1-(2-hydroxy-acetyl)-sisomicin]: the MIC in assay [1] (setting [3]) and in assay [2] (setting [4]) was 1 to 16 µg/mL (≈ 1.78 to 28.4 µM) throughout.

For `CN[C@@H]1[C@@H](O)[C@@H](O[C@@H]2[C@@H](O)[C@H](O[C@H]3OC(CN)=CC[C@H]3NC(=O)CC3CNCCO3)[C@@H](N)C[C@H]2NC(=O)[C@@H](O)CCN)OC[C@]1(C)O` (stereo partly drawn) [Example 92, 2′-(Morpholin-2-yl-acetyl)-1-(4-amino-2(S)-hydroxy-butyryl)-sisomicin], the MIC in assay [1] (setting [3]) is above 16 µg/mL; in assay [2] (setting [4]), below 1 µg/mL.
